# Reference: patent US8518945B2, “Pyrrolopyrazine kinase inhibitors” (Hoffmann-La Roche Inc., priority 2010, dated 2013)
# Biological target: T1, h-jak3(810-1124) (JAK3: Recombinant human kinase domain) (Homo sapiens, UniProt P52333)
# T1 construct: jak3(810- 1124)-sf9-c; made in house; host or cells: Sf9
# Assay: Determination of IC50 of Janus Kinase (JAK) inhibition: JAK3 radioactive end-point 33P-ATP kinase assay
# Assay type: biochemical
# Conditions: no additive; ATP 1.5 uM, peptide 50 uM, 20 minutes, room temperature; read-out: Ic50 h-jak3(810-1124)-sf9-c: no additive
# T1 sequence (P52333 810-1124): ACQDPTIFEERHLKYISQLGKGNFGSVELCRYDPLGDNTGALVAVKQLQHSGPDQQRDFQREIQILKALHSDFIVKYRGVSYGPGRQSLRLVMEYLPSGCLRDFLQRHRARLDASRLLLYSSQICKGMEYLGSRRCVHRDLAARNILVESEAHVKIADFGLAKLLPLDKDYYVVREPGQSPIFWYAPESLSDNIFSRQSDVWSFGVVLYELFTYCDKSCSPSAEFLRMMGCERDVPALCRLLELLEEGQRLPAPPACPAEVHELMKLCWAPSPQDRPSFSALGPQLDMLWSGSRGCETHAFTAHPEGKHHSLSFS
row,SMILES,IC50 [nM]
1,"N#CC1CN(C(=O)[C@@H](NC(=O)c2c[nH]c3ncc(C4CC4)nc23)C2CCOCC2)C1 [Example I-137, 2-Cyclopropyl-5H-pyrrolo[2,3-b]pyrazine-7-carboxylic acid [(S)-2-(3-cyano-azetidin-1-yl)-2-oxo-1-(tetrahydro-pyran-4-yl)-ethyl]-amide]",539
2,"COC1CCN(C(=O)[C@@H](C)NC(=O)c2c[nH]c3ncc(C4CC4)nc23)C1 (stereo partly drawn) [Example I-9, 2-Cyclopropyl-5H-pyrrolo[2,3-b]pyrazine-7-carboxylic acid [(R)-2-(3-methoxy-pyrrolidin-1-yl)-1-methyl-2-oxo-ethyl]-amide]",52.9
3,"COc1ccnc(-c2cnc3[nH]cc(C(=O)N[C@@H](C(=O)N4CCC(C#N)CC4)C(C)(C)C)c3n2)c1 [Example I-127, 2-(4-Methoxy-pyridin-2-yl)-5H-pyrrolo[2,3-b]pyrazine-7-carboxylic acid [(R)-1-(4-cyano-piperidine-1-carbonyl)-2,2-dimethyl-propyl]-amide]",3.56
4,"Cn1cc(-c2cnc3[nH]cc(C(=O)N[C@@H](C(=O)N4CC(C#N)C4)C(C)(C)C)c3n2)cn1 [Example I-53, 2-(1-Methyl-1H-pyrazol-4-yl)-5H-pyrrolo[2,3-b]pyrazine-7-carboxylic acid [(R)-1-(3-cyano-azetidine-1-carbonyl)-2,2-dimethyl-propyl]-amide]",279
5,"N#CC1CCN(C(=O)[C@H](NC(=O)c2c[nH]c3ncc(-c4cc(-c5ccccc5)ccn4)nc23)C2CC2)CC1 [Example I-147, 2-(4-Phenyl-pyridin-2-yl)-5H-pyrrolo[2,3-b]pyrazine-7-carboxylic acid [(R)-2-(4-cyano-piperidin-1-yl)-1-cyclopropyl-2-oxo-ethyl]-amide]",4.46
6,"C[C@@H](NC(=O)c1c[nH]c2ncc(C3CC3)nc12)C(=O)N1CCC(C(F)(F)F)C1 (stereo partly drawn) [Example I-25, 2-Cyclopropyl-5H-pyrrolo[2,3-b]pyrazine-7-carboxylic acid [(R)-1-methyl-2-oxo-2-(3-trifluoromethyl-pyrrolidin-1-yl)-ethyl]-amide]",16.1
7,"CC1CCN(C(=O)[C@@H](C)NC(=O)c2c[nH]c3ncc(C4CC4)nc23)C1 (stereo partly drawn) [Example I-15, 2-Cyclopropyl-5H-pyrrolo[2,3-b]pyrazine-7-carboxylic acid [(R)-1-methyl-2-(3-methyl-pyrrolidin-1-yl)-2-oxo-ethyl]-amide]",54.9
8,"C[C@@H](NC(=O)c1c[nH]c2ncc(C3CC3)nc12)C(=O)N1CC[C@H](F)C1 [Example I-22, 2-Cyclopropyl-5H-pyrrolo[2,3-b]pyrazine-7-carboxylic acid [(R)-2-((S)-3-fluoro-pyrrolidin-1-yl)-1-methyl-2-oxo-ethyl]-amide]",5.34
9,"Cc1nc(-c2cnc3[nH]cc(C(=O)N[C@@H](C(=O)N4CC(C#N)C4)C(C)(C)C)c3n2)cn1-c1cc(F)cc(F)c1 [Example I-157, 2-[1-(3,5-Difluoro-phenyl)-2-methyl-1H-imidazol-4-yl]-5H-pyrrolo[2,3-b]pyrazine-7-carboxylic acid [(R)-1-(3-cyano-azetidine-1-carbonyl)-2,2-dimethyl-propyl]-amide]",3.28
10,"CC(C)[C@@H](NC(=O)c1c[nH]c2ncc(Oc3ccccc3)nc12)C(=O)N1CCCC1 [Example I-18, 2-Phenoxy-5H-pyrrolo[2,3-b]pyrazine-7-carboxylic acid [(R)-2-methyl-1-(pyrrolidine-1-carbonyl)-propyl]-amide]",443
11,"N#CC1CN(C(=O)[C@H](NC(=O)c2c[nH]c3ncc(-c4cc5nccc(N6CCCC6)c5s4)nc23)C2CC2)C1 [Example I-97, 2-(7-Pyrrolidin-1-yl-thieno[3,2-b]pyridin-2-yl)-5H-pyrrolo[2,3-b]pyrazine-7-carboxylic acid [(R)-2-(3-cyano-azetidin-1-yl)-1-cyclopropyl-2-oxo-ethyl]-amide]",3.91
12,"Cn1cc(-c2cnc3[nH]cc(C(=O)N[C@@H](C(=O)N4CC(C#N)C4)C4CCCCC4)c3n2)cn1 [Example I-76, 2-(1-Methyl-1H-pyrazol-4-yl)-5H-pyrrolo[2,3-b]pyrazine-7-carboxylic acid [(R)-2-(3-cyano-azetidin-1-yl)-1-cyclohexyl-2-oxo-ethyl]-amide]",11.8
13,"CC(C)Oc1cnc2[nH]cc(C(=O)N[C@@H](C(=O)N3CCC(C#N)CC3)C(C)(C)C)c2n1 [Example I-94, 2-Isopropoxy-5H-pyrrolo[2,3-b]pyrazine-7-carboxylic acid [(R)-1-(4-cyano-piperidine-1-carbonyl)-2,2-dimethyl-propyl]-amide]",3.66
14,"CC(C)(C)[C@@H](NC(=O)c1c[nH]c2ncc(C3CC3)nc12)C(=O)N1CCc2ccccc21 [Example I-138, 2-Cyclopropyl-5H-pyrrolo[2,3-b]pyrazine-7-carboxylic acid [(R)-1-(2,3-dihydro-indole-1-carbonyl)-2,2-dimethyl-propyl]-amide]",19.1

# Stronger by IC50, values ahead:
row,IC50 [nM],SMILES
1,0.57,"C[C@@H](NC(=O)c1c[nH]c2ncc(-c3cccc(N4C[C@H]5C[C@H]5C4)c3)nc12)C(=O)N1CC(C#N)C1 [Example I-126, 2-[(1S,5R)-3-(3-Aza-bicyclo[3.1.0]hex-3-yl)-phenyl]-5H-pyrrolo[2,3-b]pyrazine-7-carboxylic acid [(R)-2-(3-cyano-azetidin-1-yl)-1-methyl-2-oxo-ethyl]-amide]"
2,0.7,"N#CC1CCN(C(=O)[C@H](NC(=O)c2c[nH]c3ncc(C4CC4)nc23)C2CCCC2)CC1 [Example I-45, 2-Cyclopropyl-5H-pyrrolo[2,3-b]pyrazine-7-carboxylic acid [(R)-2-(4-cyano-piperidin-1-yl)-1-cyclopentyl-2-oxo-ethyl]-amide]"
3,1.72,"O=C(N[C@@H](C(=O)N1CCCC1)C1CC1)c1c[nH]c2ncc(C3CC3)nc12 [Example I-5, 2-Cyclopropyl-5H-pyrrolo[2,3-b]pyrazine-7-carboxylic acid ((R)-1-cyclopropyl-2-oxo-2-pyrrolidin-1-yl-ethyl)-amide]"
4,0.87,"CC(C)(C)[C@@H](NC(=O)c1c[nH]c2ncc(C3CC3)nc12)C(=O)N1CCC(O)(c2ccccc2)CC1 [Example I-65, 2-Cyclopropyl-5H-pyrrolo[2,3-b]pyrazine-7-carboxylic acid [(R)-1-(4-hydroxy-4-phenyl-piperidine-1-carbonyl)-2,2-dimethyl-propyl]-amide]"
5,≤ 0.32,"Cn1cnc(-c2cnc3[nH]cc(C(=O)N[C@@H](C(=O)N4CCC(C#N)CC4)C(C)(C)C)c3n2)c1 [Example I-77, 2-(1-Methyl-1H-imidazol-4-yl)-5H-pyrrolo[2,3-b]pyrazine-7-carboxylic acid [(R)-1-(4-cyano-piperidine-1-carbonyl)-2,2-dimethyl-propyl]-amide]"
6,1.18,"N#CC1CCN(C(=O)[C@H](NC(=O)c2c[nH]c3ncc(-c4cc(OCC5CC5)ccn4)nc23)C2CC2)CC1 [Example I-129, 2-(4-Cyclopropylmethoxy-pyridin-2-yl)-5H-pyrrolo[2,3-b]pyrazine-7-carboxylic acid [(R)-2-(4-cyano-piperidin-1-yl)-1-cyclopropyl-2-oxo-ethyl]-amide]"
7,0.38,"CCn1cc(-c2cnc3[nH]cc(C(=O)N[C@@H](C(=O)N4CCC(O)(C(F)(F)F)CC4)C4CC4)c3n2)cn1 [Example I-146, 2-(1-Ethyl-1H-pyrazol-4-yl)-5H-pyrrolo[2,3-b]pyrazine-7-carboxylic acid [(R)-1-cyclopropyl-2-(4-hydroxy-4-trifluoromethyl-piperidin-1-yl)-2-oxo-ethyl]-amide]"
8,≤ 0.32,"Cn1cc(-c2cnc3[nH]cc(C(=O)N[C@@H](C(=O)N4CC[C@@H](C#N)C4)C4CC4)c3n2)cn1 [Example I-82, 2-(1-Methyl-1H-pyrazol-4-yl)-5H-pyrrolo[2,3-b]pyrazine-7-carboxylic acid [(R)-2-((R)-3-cyano-pyrrolidin-1-yl)-1-cyclopropyl-2-oxo-ethyl]-amide]"
9,0.75,"O=C(N[C@@H](C(=O)N1CC2(COC2)C1)C1CC1)c1c[nH]c2ncc(C3CC3)nc12 [Example I-84, 2-Cyclopropyl-5H-pyrrolo[2,3-b]pyrazine-7-carboxylic acid [(R)-1-cyclopropyl-2-(2-oxa-6-aza-spiro[3.3]hept-6-yl)-2-oxo-ethyl]-amide]"
10,≤ 0.32,"N#CC1CN(C(=O)[C@H](NC(=O)c2c[nH]c3ncc(-c4ccc(N5CCOCC5)cc4)nc23)C2CC2)C1 [Example I-163, 2-(4-Morpholin-4-yl-phenyl)-5H-pyrrolo[2,3-b]pyrazine-7-carboxylic acid [(R)-2-(3-cyano-azetidin-1-yl)-1-cyclopropyl-2-oxo-ethyl]-amide]"
11,1.01,"CC(C)(C)[C@@H](NC(=O)c1c[nH]c2ncc(-c3cnn(-c4ccc(F)cc4)c3)nc12)C(=O)N1CCC(C#N)CC1 [Example I-117, 2-[1-(4-Fluoro-phenyl)-1H-pyrazol-4-yl]-5H-pyrrolo[2,3-b]pyrazine-7-carboxylic acid [(R)-1-(4-cyano-piperidine-1-carbonyl)-2,2-dimethyl-propyl]-amide]"
12,1.27,"CC[C@@H](C)[C@@H](NC(=O)c1c[nH]c2ncc(C3CC3)nc12)C(=O)N1CCC(C#N)CC1 [Example I-149, 2-Cyclopropyl-5H-pyrrolo[2,3-b]pyrazine-7-carboxylic acid [(1R,2R)-1-(4-cyano-piperidine-1-carbonyl)-2-methyl-butyl]-amide]"
13,≤ 0.32,"CC(=O)N1CCN(C(=O)[C@H](NC(=O)c2c[nH]c3ncc(C4CC4)nc23)C(C)(C)C)CC1 [Example I-57, 2-Cyclopropyl-5H-pyrrolo[2,3-b]pyrazine-7-carboxylic acid [(R)-1-(4-acetyl-piperazine-1-carbonyl)-2,2-dimethyl-propyl]-amide]"
14,0.8,"CC(C)(C)[C@@H](NC(=O)c1c[nH]c2ncc(C3CC3)nc12)C(=O)N1CC[C@@H](C#N)C1 [Example I-31, 2-Cyclopropyl-5H-pyrrolo[2,3-b]pyrazine-7-carboxylic acid [(R)-1-((R)-3-cyano-pyrrolidine-1-carbonyl)-2,2-dimethyl-propyl]-amide]"
